Assay results reported in patent publication US11413291B2, “Pesticidally active heterocyclic derivatives with sulfur containing substituents” (SYNGENTA PARTICIPATIONS AG, priority 2017, dated 2022).

How the values were obtained:
Assay type in all cases: in vivo
Bemisia tabaci = assay: Example B7: Bemisia tabaci, sprayed cotton leaf discs; details: foliar, 144 h, application rate 200 ppm, adult white flies, 6 days after incubation
Experimental: Cotton leaf discs were placed on agar in 24-well microtiter plates and sprayed with aqueous test solutions prepared from 10,000 ppm DMSO stock solutions. After drying the leaf discs were infested with adult white flies. The samples were checked for mortality 6 days after incubation.

Myzus persicae [1] = assay: Example B5: Myzus persicae feeding/contact, sprayed sunflower leaf discs; details: foliar; for mortality at 200 ppm: Myzus persicae, 144 h, application rate 200 ppm, mixed ages, 6 days after infestation; for mortality at 12.5 ppm: Myzus persicae (B5), concentration 12.5 ppm
Experimental: Sunflower leaf discs were placed onto agar in a 24-well microtiter plate and sprayed with aqueous test solutions prepared from 10,000 ppm DMSO stock solutions. After drying, the leaf discs were infested with an aphid population of mixed ages. The samples were assessed for mortality 6 days after infestation.

Tetranychus urticae = assay: Example B10: Tetranychus urticae, sprayed bean leaf discs; details: foliar, 192 h, application rate 200 ppm, mixed population (mobile stages), 8 days after infestation
Experimental: Bean leaf discs on agar in 24-well microtiter plates were sprayed with aqueous test solutions prepared from 10,000 ppm DMSO stock solutions. After drying the leaf discs were infested with a mite population of mixed ages. The samples were assessed for mortality on mixed population (mobile stages) 8 days after infestation.

Euschistus heros = assay: Example B8: Euschistus heros, sprayed soybean leaves; details: for mortality at 0.8 ppm: Euschistus heros (B8), concentration 0.8 ppm; for percent effect (mortality or growth inhibition) at 200 ppm: Euschistus heros, 120 h, application rate 200 ppm, N2 nymphs, 5 days after infestation, read-out: effect in at least one of the two categories (mortality or growth inhibition)
Experimental: Soybean leaves on agar in 24-well microtiter plates were sprayed with aqueous test solutions prepared from 10,000 ppm DMSO stock solutions. After drying the leaves were infested with N2 nymphs. The samples were assessed for mortality and growth inhibition in comparison to untreated samples 5 days after infestation.

Plutella xylostella = assay: Example B3: Plutella xylostella, artificial diet; details: 120 h, application rate 200 ppm, L2 larvae, 5 days after infestation, read-out: effect in at least one of the two categories (mortality or growth inhibition)
Experimental: (§1) 24-well microtiter plates with artificial diet were treated with aqueous test solutions prepared from 10,000 ppm DMSO stock solutions by pipetting. After drying, the plates were infested with L2 larvae (10 to 15 per well). The samples were assessed for mortality and growth inhibition in comparison to untreated samples 5 days after infestation.

Diabrotica balteata = assay: Example B4: Diabrotica balteata, sprayed maize sprouts; details: 96 h, application rate 200 ppm, L2 larvae, 4 days after infestation, read-out: effect in at least one of the two categories (mortality or growth inhibition)
Experimental: as §1, with “Maize sprouts placed onto an agar layer in 24-well” for “24-well”, “plates” for “plates with artificial diet”, “spraying.” for “pipetting.”, “(6” for “(10”, “10” for “15”, “4” for “5”

Myzus persicae [2] = assay: Example B6: Myzus persicae systemic, pea seedling roots in test solution; details: for mortality at 6 ppm: Myzus persicae (B6), concentration 6 ppm; for mortality at 24 ppm: Myzus persicae, 144 h, test rate 24 ppm, mixed ages, 6 days
Experimental: Roots of pea seedlings infested with an aphid population of mixed ages were placed directly into aqueous test solutions prepared from 10,000 DMSO stock solutions. The samples were assessed for mortality 6 days after placing seedlings into test solutions.

Spodoptera littoralis = assay: Example B1: Spodoptera littoralis, sprayed cotton leaf discs; details: foliar, 72 h, application rate 200 ppm, L1 larvae, 3 days after infestation
Experimental: Cotton leaf discs were placed onto agar in 24-well microtiter plates and sprayed with aqueous test solutions prepared from 10′000 ppm DMSO stock solutions. After drying the leaf discs were infested with five L1 larvae. The samples were assessed for mortality, anti-feeding effect, and growth inhibition in comparison to untreated samples 3 days after infestation. Control of Spodoptera littoralis by a test sample is given when at least one of the categories mortality, anti-feedant effect, and growth inhibition is higher than the untreated sample.

[3] = tested on: Frankliniella occidentalis; assay: Example B11: Frankliniella occidentalis, sprayed sunflower leaf discs; details: foliar, 168 h, application rate 200 ppm, mixed ages, 7 days after infestation
Experimental: Sunflower leaf discs were placed on agar in 24-well microtiter plates and sprayed with aqueous test solutions prepared from 10,000 DMSO stock solutions. After drying the leaf discs were infested with a Frankliniella population of mixed ages. The samples were assessed for mortality 7 days after infestation.

Row | SMILES | mortality at 200 ppm (Bemisia tabaci) [%] | mortality at 200 ppm (Myzus persicae [1]) [%] | mortality at 12.5 ppm (Myzus persicae [1]) [%] | mortality at 200 ppm (Tetranychus urticae) [%] | mortality at 0.8 ppm (Euschistus heros) [%] | percent effect (mortality or growth inhibition) at 200 ppm (Euschistus heros) [%] | percent effect (mortality or growth inhibition) at 200 ppm (Plutella xylostella) [%] | percent effect (mortality or growth inhibition) at 200 ppm (Diabrotica balteata) [%] | mortality at 6 ppm (Myzus persicae [2]) [%] | mortality at 24 ppm (Myzus persicae [2]) [%] | percent control (mortality, anti-feedant effect or growth inhibition) at 200 ppm (Spodoptera littoralis) [%] | mortality at 200 ppm [3] [%]
1 | CCS(=O)(=O)c1cc(C(C)(C)C#N)cnc1-c1cn2cnc(C(F)(F)F)cc2n1 [Compound P1, 2-[5-ethylsulfonyl-6-[7-(trifluoromethyl)imidazo[1,2-c]pyrimidin-2-yl]-3-pyridyl]-2-methyl-propanenitrile] | ≥ 80 | ≥ 80 | 100 | ≥ 80 | 100 | ≥ 80 | ≥ 80 | ≥ 80 | 100 | ≥ 80 | ≥ 80 | –
2 | CCS(=O)(=O)c1cc(C(C)(C)C#N)cnc1-n1cc2cnc(C(F)(F)F)cc2n1 [Compound P2, 2-[5-ethylsulfonyl-6-[6-(trifluoromethyl)pyrazolo[4,3-c]pyridin-2-yl]-3-pyridyl]-2-methyl-propanenitrile] | ≥ 80 | ≥ 80 | – | – | – | ≥ 80 | ≥ 80 | ≥ 80 | – | – | ≥ 80 | –
3 | CCS(=O)(=O)c1cc(C(C)(C)C#N)cnc1-c1cn2ccc(SC(F)F)cc2n1 [Compound P5, 2-[6-[7-(difluoromethylsulfanyl)imidazo[1,2-a]pyridin-2-yl]-5-ethylsulfonyl-3-pyridyl]-2-methyl-propanenitrile] | ≥ 80 | ≥ 80 | – | – | – | – | – | ≥ 80 | – | – | ≥ 80 | –
4 | CCS(=O)(=O)c1cc(C(C)(C)C#N)cnc1-c1cn2ccc(SC(F)(F)F)cc2n1 [Compound P7, 2-[5-ethylsulfonyl-6-[7-(trifluoromethylsulfanyl)imidazo[1,2-a]pyridin-2-yl]-3-pyridyl]-2-methyl-propanenitrile] | ≥ 80 | ≥ 80 | – | – | – | – | ≥ 80 | ≥ 80 | – | – | ≥ 80 | ≥ 80
5 | CCS(=O)(=O)c1cc(C(C)(C)C#N)cnc1-c1cn2ncc(C(F)(F)F)cc2n1 [Compound P8, 2-[5-ethylsulfonyl-6-[7-(trifluoromethyl)imidazo[1,2-b]pyridazin-2-yl]-3-pyridyl]-2-methyl-propanenitrile] | ≥ 80 | ≥ 80 | – | – | – | ≥ 80 | ≥ 80 | ≥ 80 | – | ≥ 80 | ≥ 80 | –
6 | CCS(=O)(=O)c1cc(C(C)(C)C#N)cnc1-c1cn2ccc(C(F)(F)F)cc2n1 [Compound P9, 2-[5-ethylsulfonyl-6-[7-(trifluoromethyl)imidazo[1,2-a]pyridin-2-yl]-3-pyridyl]-2-methyl-propanenitrile] | – | ≥ 80 | – | ≥ 80 | – | – | ≥ 80 | ≥ 80 | – | – | ≥ 80 | –
7 | CCSc1cc(C(C)(C)C#N)cnc1-c1nc2cc(C(F)(F)F)n(CC(F)(F)F)c(=O)c2n1C [Compound P10, 2-[5-ethylsulfanyl-6-[3-methyl-4-oxo-5-(2,2,2-trifluoroethyl)-6-(trifluoromethyl)imidazo[4,5-c]pyridin-2-yl]-3-pyridyl]-2-methyl-propanenitrile] | ≥ 80 | ≥ 80 | – | – | – | – | ≥ 80 | ≥ 80 | – | – | – | –
8 | CCn1c(C(F)(F)F)cc2nc(-c3ccc(C(C)(C)C#N)cc3S(=O)(=O)CC)n(C)c2c1=O [Compound P13, 2-[4-[5-ethyl-3-methyl-4-oxo-6-(trifluoromethyl)imidazo[4,5-c]pyridin-2-yl]-3-ethylsulfonyl-phenyl]-2-methyl-propanenitrile] | ≥ 80 | – | – | – | – | – | ≥ 80 | ≥ 80 | – | – | ≥ 80 | –
9 | CCS(=O)(=O)c1cc(C(C)(C)C#N)cnc1-c1cn2cnc(SC(F)F)cc2n1 [Compound P14, 2-[6-[7-(difluoromethylsulfanyl)imidazo[1,2-c]pyrimidin-2-yl]-5-ethylsulfonyl-3-pyridyl]-2-methyl-propanenitrile] | ≥ 80 | ≥ 80 | – | – | – | ≥ 80 | ≥ 80 | ≥ 80 | – | – | ≥ 80 | –
10 | CCS(=O)(=O)c1cc(C(C)(C)C#N)cnc1-c1cn2cnc(S(=O)(=O)C(F)F)cc2n1 [Compound P15, 2-[6-[7-(difluoromethylsulfonyl)imidazo[1,2-c]pyrimidin-2-yl]-5-ethylsulfonyl-3-pyridyl]-2-methyl-propanenitrile] | – | ≥ 80 | – | – | – | – | ≥ 80 | – | – | ≥ 80 | – | –
11 | CCS(=O)(=O)c1cc(C(C)(C)C#N)cnc1-c1cn2cnc([S+]([O-])C(F)F)cc2n1 (stereo not drawn) [Compound P16, 2-[6-[7-(difluoromethylsulfinyl)imidazo[1,2-c]pyrimidin-2-yl]-5-ethylsulfonyl-3-pyridyl]-2-methyl-propanenitrile] | – | ≥ 80 | – | – | – | – | ≥ 80 | – | – | ≥ 80 | – | –
12 | CCSc1cc(C(C)(C)C#N)cnc1-c1nc2cc(C(F)(F)F)n(C3CC3)c(=O)c2n1C [Compound P18, 2-[6-[5-cyclopropyl-3-methyl-4-oxo-6-(trifluoromethyl)imidazo[4,5-c]pyridin-2-yl]-5-ethylsulfanyl-3-pyridyl]-2-methyl-propanenitrile] | – | ≥ 80 | – | ≥ 80 | – | – | ≥ 80 | ≥ 80 | – | – | ≥ 80 | –
13 | CCS(=O)(=O)c1cc(C(C)(C)C#N)ccc1-c1cn2ccc(C(F)(F)F)cc2n1 [Compound P19, 2-[3-ethylsulfonyl-4-[7-(trifluoromethyl)imidazo[1,2-a]pyridin-2-yl]phenyl]-2-methyl-propanenitrile] | ≥ 80 | – | – | – | – | – | ≥ 80 | ≥ 80 | – | – | ≥ 80 | –
14 | CCS(=O)(=O)c1cc(C(C)(C)C#N)ccc1-c1cn2cnc(C(F)(F)F)cc2n1 [Compound P20, 2-[3-ethylsulfonyl-4-[7-(trifluoromethyl)imidazo[1,2-c]pyrimidin-2-yl]phenyl]-2-methyl-propanenitrile] | ≥ 80 | ≥ 80 | – | – | – | – | ≥ 80 | ≥ 80 | – | – | – | –
15 | CCS(=O)(=O)c1cc(C2(C#N)CC2)cnc1-c1cn2cnc(C(F)(F)F)cc2n1 [reference compound] | – | – | 0 | – | 0 | – | – | – | 0 | – | – | –
